Test results: PMC6838762 (Biophysical Journal, 2019)

Target: T1, FeuA (Bacillus subtilis, UniProt P40409, Q131C)
T1 sequence (P40409 21-317 Q131C): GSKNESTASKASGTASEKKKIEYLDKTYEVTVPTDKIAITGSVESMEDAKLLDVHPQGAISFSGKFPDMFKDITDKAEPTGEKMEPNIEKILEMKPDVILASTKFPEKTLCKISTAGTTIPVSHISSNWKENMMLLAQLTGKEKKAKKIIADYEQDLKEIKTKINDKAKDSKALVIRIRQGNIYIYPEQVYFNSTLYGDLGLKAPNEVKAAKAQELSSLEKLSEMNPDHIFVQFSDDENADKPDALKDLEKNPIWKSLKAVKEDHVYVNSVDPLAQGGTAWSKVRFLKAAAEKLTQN
Type: binding

## ferri-bacillibactin [FeBB]
  Kd: 20 ± 3 nM
